# Source: article PMC8145564, “Phenolic Compounds from Carissa spinarum Are Characterized by Their Antioxidant, Anti-Inflammatory and Hepatoprotective Activities” (Antioxidants, 2021)
# “Also recorded” adds a separate entry of the source. Marks after values point to notes of the source that are not given here.
# Tests used:
# [1] = DPPH radical scavenging activity assay; type: biochemical; conditions: for IC50: isolated compounds, final concentrations 6.25 to 100 µM; for Antioxidant potential in DPPH and FRAP (result in words): both methods (DPPH and FRAP)
# Experimental: The 2,2-diphenyl-1-picrylhydrazyl (DPPH) radical scavenging abilities of the C. spinarum extracts and isolated compounds were assessed by the previously reported method. The reaction mixtures containing 190 µL DPPH solution (100 µM) and 10 µL samples (extracts or compounds) or positive control (vitamin C) solutions with various concentrations or blank control (methanol) were placed in the 96-well plate, and incubated in darkness at room temperature for 30 min. Then, the absorbance of the reaction mixture was measured by the microplate reader at 517 nm. All groups were tested in triplicate and the DPPH radical scavenging activity was calculated by the following equation:DPPH-radical scavenging percentage (%) = [(Acontrol − Asample)/Acontrol] × 100%(1)
# Acontrol and Asample represent the absorbance of the blank control and samples or positive control, respectively. Additionally, the IC50 values, which were defined as the effective sample concentration when DPPH radical was scavenged by 50%, were calculated by the GraphPad Prism software.
# [2] = Ferric reducing antioxidant power (FRAP) assay; type: biochemical; conditions: for FRAP total antioxidant activity (result in words): isolated compounds, 6.25 to 100 µM, positive control vitamin C
# Experimental: The FRAP assay was performed according to the methodology reported in [26, 27] with minor modifications. Briefly, the FRAP working solution, composed of 300 mM acetate buffer (pH 3.6), 10 mM TPTZ solution and 20 mM FeCl3·6H2O solution in a ratio of 10:1:1 (v/v/v), was freshly prepared and warmed at 37 °C before use. Then, 190 µL FRAP working solution and 10 µL samples were added in 96-well plates and incubated at 37 °C for 10 min. The absorbance of the reaction mixture was collected by a microplate reader at 593 nm. A standard curve was established by FeSO4 at final concentrations ranging from 1.56 to 200 µM, and the total antioxidant activities of the extracts, compounds and positive controls (vitamin C) were calculated by the standard curve and expressed in terms of the FeSO4 value (µM). All the results were shown by the average values of the three biological replications.
# [3] = test system: L02 cells; experiment: Hepatoprotective activity on L02 cells against H2O2-induced oxidative stress (SRB cell viability); type: cell-based; conditions: then 300 µM H2O2 for 4 h, % of normal control, H2O2 model group 68.2% (65.2% for vitamin C); for viability at 5 µM: Homo sapiens, L02, 12 h pretreatment
# Experimental: The L02 cells were purchased from BeNa Culture Collection Company (BNCC, Beijing, China) and cultured in RPMI-1640 medium supplemented with 10% fetal bovine serum (FBS) and 1% penicillin–streptomycin solution at 37 °C under 5% CO2 in a humidified incubator. The H2O2 induced oxidative stress model of L02 cell was established according to the reported method with slight modifications. Firstly, 120 µL L02 cell suspension (1 × 10^4 cells) was seeded in a 96-well plate and incubated for 24 h, followed by the addition of 15 µL PBS buffer (corresponding to the addition of tested samples). […] The cell viability was evaluated by the SRB test kit (BestBio, Shanghai, China) following the manufacturer’s instructions. According to the above result, after the 24 h incubation, the L02 cells were pretreated with 15 µL samples of various concentrations or PBS (H2O2-induced model and normal control group) for 12 h. Then, 15 µL H2O2 solution (300 µM) or PBS (normal control group) was added and maintained for 4 h. Finally, the cell viability was tested by the SRB method and expressed as a percentage of the normal control group. Each group was performed in triplicate.
# [4] = test system: L02 cells; experiment: Quantitation of intracellular ROS (DCFH-DA) in H2O2-induced L02 cells; type: cell-based; conditions: 5 µM final concentration, DCFH-DA fluorescence
# Experimental: The quantitation of intracellular ROS was detected by the ROS assay kit purchased from Beyotime (Shanghai, China) following the manufacturer’s instructions. The cell pretreatment was the same as hepatoprotective activity screening. Four hours later, after the addition of H2O2, the cells were incubated with 10 µM DCFH-DA (final concentration in RPMI-1640 medium) for 30 min, and were then washed three times with medium. Finally, the fluorescence intensity was recorded by a microplate reader with the excitation wavelength at 488 nm and the emission wavelength at 525 nm and then the fluorescence photos were taken by a cell imaging multi-mode reader (Cytation 1, BioTek, Winooski, VT, USA). Each group was performed in triplicate and the fluorescence values were calibrated by the corresponding cell viabilities using the SRB method.
# [5] = biological target: T1, rhCOX-2 (Homo sapiens, UniProt P35354); experiment: COX-2 inhibition assay (COX-2 inhibitor screening kit, fluorescence probe method)
# T1 sequence (P35354 18-604): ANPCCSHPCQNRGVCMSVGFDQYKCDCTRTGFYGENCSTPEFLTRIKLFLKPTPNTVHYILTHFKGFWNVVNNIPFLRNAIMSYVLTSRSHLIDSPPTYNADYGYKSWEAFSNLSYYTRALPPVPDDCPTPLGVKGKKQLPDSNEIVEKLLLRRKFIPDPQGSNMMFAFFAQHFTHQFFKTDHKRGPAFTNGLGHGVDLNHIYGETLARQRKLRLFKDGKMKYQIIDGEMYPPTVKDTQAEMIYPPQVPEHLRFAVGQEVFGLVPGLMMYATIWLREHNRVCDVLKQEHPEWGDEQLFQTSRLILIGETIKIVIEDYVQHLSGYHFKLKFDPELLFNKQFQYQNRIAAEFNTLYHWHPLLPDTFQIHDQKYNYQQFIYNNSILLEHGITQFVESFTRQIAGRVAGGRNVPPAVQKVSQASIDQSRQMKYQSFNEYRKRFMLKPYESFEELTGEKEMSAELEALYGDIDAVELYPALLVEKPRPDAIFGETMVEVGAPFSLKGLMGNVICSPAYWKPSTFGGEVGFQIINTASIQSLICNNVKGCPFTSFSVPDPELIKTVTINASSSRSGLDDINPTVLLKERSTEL
# Experimental: COX-2 inhibition activity was screened using a commercial assay kit by the fluorescence probe method, following the manufacturer’s instructions, based on a two-step reaction: the substrate (arachidonic acid) was firstly catalyzed by COX-2 to generate PGG2, which was then further catalyzed by COX-2 to produce PGH2. During the second step, the probe without fluorescence added in the reaction system was simultaneously catalyzed to probe with strong fluorescence. […] After incubation for 10 min at 37 °C, 5 µL COX-2 substrate and 5 µL COX-2 probe were added and incubated in darkness for 10 min. Then, the fluorescence intensity was recorded by microplate reader with the excitation wavelength at 560 nm and the emission wavelength at 590 nm. The COX-2 activity inhibition percentage was calculated by the following equation: COX-2 activity inhibition (%) = [(F100% activity control − Fsample)/(F100% activity control − Fblank control)] × 100%(2) where F100% activity control, Fsample and Fblank control represent the fluorescence intensity of the 100% enzyme activity control, samples or positive control, and blank control, respectively.
structure (smiles),measurement,setting,value
"O=C(O)c1ccc(O)c(O)c1 [Compound 9, protocatechuic acid]",IC50,[1]; means ± SD (n = 3),16.5 ± 1.2 µM
same,FRAP total antioxidant activity (result in words),[2],higher reducing capacities than the positive control
same,viability at 5 µM,[3],80.9%
same,ROS quantity versus H2O2-induced model group,[4],statistically significant decreases in ROS quantity
"CC(=O)c1ccccc1O[C@@H]1OC(CO[C@@H]2OC[C@@H](O)[C@H](O)[C@H]2O)[C@@H](O)[C@H](O)[C@H]1O (stereo partly drawn) [Compound 5, acetophenone-2-O-β-xylopyranosyl-(1→6)-O-β-glucopyranoside]",Antioxidant potential in DPPH and FRAP (result in words),[1],no obvious antioxidant potential
"COc1cc([C@@H](O)[C@H](C)O)ccc1O [Compound 7, threo-1-(3-methoxy-4-hydroxy-phenyl)-propan-1,2-diol]",FRAP total antioxidant activity (result in words),[2],higher reducing capacities than the positive control
"COc1cc([C@H]2c3cc(O)c(OC)cc3C[C@@H](CO)[C@@H]2CO[C@@H]2O[C@H](CO)[C@@H](O)[C@H](O)[C@H]2O)ccc1O [Compound 2, (+)-isolariciresinol 3a-O-β-D-glucopyranoside]",IC50,[5],0.3 µM
same,FRAP total antioxidant activity (result in words),[2],higher reducing capacities than the positive control
same,viability at 5 µM,[3],79.4%
same,ROS quantity versus H2O2-induced model group,[4],statistically significant decreases in ROS quantity
"O=C1O[C@H]([C@@H](O)CO)C(O)=C1O [Vitamin C, vitamin C, reference compound]",DPPH IC50,"[1]; extracts of C. spinarum root bark, 30 min, 517 nm, means ± SD (n = 3)",4.5 ± 0.1 ^d µg/mL
same,IC50,[1]; means ± SD (n = 3),25.5 ± 0.3 µM
same,FRAP,"[2]; extracts of C. spinarum root bark, means ± SD (n = 3)",8.9 ± 1.2 ^b mmol Fe^2+/g
same,Viability of L02 cells,"[3]; 5 µM, 12 h pretreatment",82.7%
"O=C(O)Cc1cccc(C(=O)O)c1 [Compound 8, 3-carboxymethyl-benzoic acid]",Antioxidant potential in DPPH and FRAP (result in words),[1],no obvious antioxidant potential
same,DPPH scavenging rate at the highest tested concentration,[1]; highest tested concentration (100 µM),lower than 10%
same,COX-2 inhibition activity (result in words),"[5]; all tested concentrations, 0.04 to 25 µM",no COX-2 ability in all tested concentrations; also recorded: did not show any activities
same,FRAP total antioxidant activity (result in words),[2],did not show any activities
"COc1cc([C@@H](O)[C@@H](C)O)ccc1O [Compound 6, erythro-1-(3-methoxy-4-hydroxy-phenyl)-propan-1,2-diol]",FRAP total antioxidant activity (result in words),[2],higher reducing capacities than the positive control
